# Laboratory results taken from US20250074910A1, “MENIN INHIBITOR AND USE THEREOF” (HITGEN INC., priority 2021, published 2025).
# Like-named read-outs stand apart in the source and are kept apart here.
# Key:
# [1] = test system: MV4-11; test: Cell proliferation inhibition (CellTiter-Glo), MV4-11; type: cell-based; details: Homo sapiens, MV4-11, 72 h, MV4-11 cells
# In short: (§1)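 Cells plated at 5,000-20,000/well, treated with compound at 1 nM to 10 μM final, cultured 72-168 h at 37 °C, 5% CO2. Viability measured by CellTiter-Glo luminescence after 10 min at room temperature; IC50 from curve fitting.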
# [2] = test system: MOLM-13; test: Cell proliferation inhibition (CellTiter-Glo), MOLM-13; type: cell-based; details: Homo sapiens, MOLM-13, 168 h, MOLM-13 cells
# In short: as §1
# [3] = test system: OCI-AML3; test: Cell proliferation inhibition (CellTiter-Glo), OCI-AML3 (NPM1 mutation); type: cell-based; details: Homo sapiens, OCI-AML-3, 168 h, OCI-AML3 cells
# In short: as §1
# [4] = Stability in mouse liver microsomes; type: in vitro ADME; details: 1.00 μM compound, NADPH; for half-life at 1 μM: liver microsomes, pH 7.4, 0.5 mg/mL microsomal protein, read-out: Half life T1/2, mouse liver microsomes
# Experimental: (§2) Test Example 3: Test of Stability of Compounds in Liver Microsome
# (§3) Test purpose: To determine the stability of some of the compounds of the present disclosure in mouse, dog and human liver microsomes by LC-MS/MS method.
# (§4) Test materials: The test drugs were in-house prepared example compounds of the present disclosure; the positive reference compound SNDX-5613 was prepared by the method of Example 253 in patent WO2017214367; the control compound 1 was prepared by the method of Example 64 in WO2017214367; liver microsomes were purchased from CORNING.
# (§5) The total volume of each incubation system was approximately 45 μL, and the medium was 100 mM phosphate buffer (PBS, pH 7.4), including liver microsomal protein at a final concentration of 0.5 mg/mL, 1.00 μM compound and 2.00 mM NADPH, and the organic phase content was <1%. Incubation was performed in a 37° C. incubator, and 135 μL of ice-cold acetonitrile was added after 0, 5, 15, 30 and 60 min of reaction to terminate the reaction. The positive control group was incubated with 1.00 μM Ketanserin, 0.5 mg/mL liver microsomal protein and 2.00 mM NADPH in a 37° C. incubator for 0, 5, 15, 30 and 60 min respectively, and then 135 μL of ice-cold acetonitrile was added to terminate the reaction. The 96-well plates were shaken at 600 rpm for 10 min and then centrifuged at 4700 rpm at 4° C. for 15 min. 80 μL of supernatant was mixed with 320 μL of pure water, and the remaining amount of the compound was detected by LC-MS/MS method. The in vitro half life (T½) and intrinsic clearance (CLint) were calculated according to the following formula:
# (§6) Intrinsic clearance (Clint)=(0.693/T1/2)×(1/liver microsome concentration)×conversion factor. k is the linear regression slope of the remaining percentage of the ln compound-incubation time.
# [5] = Stability in human liver microsomes; type: in vitro ADME; details: 0.5 mg/mL microsomal protein, 1.00 μM compound, NADPH; for half-life at 1 μM: human, liver microsomes, pH 7.4, Human, read-out: Half life T1/2, human liver microsomes
# Experimental: as §2, §3, §4, §5, §6
# [6] = Stability in dog liver microsomes; type: in vitro ADME; details: 0.5 mg/mL microsomal protein, 1.00 μM compound, NADPH; for half-life at 1 μM: dog, liver microsomes, pH 7.4, Dog, read-out: Half life T1/2, dog liver microsomes
# Experimental: as §2, §3, §4, §5, §6
# [7] = biological target: T1, hERG potassium ion channel (Homo sapiens (Human), UniProt Q12809); test: hERG potassium channel effect test (manual patch clamp, HEK293 cells overexpressing hERG); type: cell-based; details: for inhibition at 30 μM: human, HEK293 cells overexpressing hERG potassium ion channels, read-out: Average inhibition rate of hERG current at the highest compound tested concentration; for IC50: manual patch clamp, highest test concentration 30 μM
# T1 sequence (Q12809 whole entry): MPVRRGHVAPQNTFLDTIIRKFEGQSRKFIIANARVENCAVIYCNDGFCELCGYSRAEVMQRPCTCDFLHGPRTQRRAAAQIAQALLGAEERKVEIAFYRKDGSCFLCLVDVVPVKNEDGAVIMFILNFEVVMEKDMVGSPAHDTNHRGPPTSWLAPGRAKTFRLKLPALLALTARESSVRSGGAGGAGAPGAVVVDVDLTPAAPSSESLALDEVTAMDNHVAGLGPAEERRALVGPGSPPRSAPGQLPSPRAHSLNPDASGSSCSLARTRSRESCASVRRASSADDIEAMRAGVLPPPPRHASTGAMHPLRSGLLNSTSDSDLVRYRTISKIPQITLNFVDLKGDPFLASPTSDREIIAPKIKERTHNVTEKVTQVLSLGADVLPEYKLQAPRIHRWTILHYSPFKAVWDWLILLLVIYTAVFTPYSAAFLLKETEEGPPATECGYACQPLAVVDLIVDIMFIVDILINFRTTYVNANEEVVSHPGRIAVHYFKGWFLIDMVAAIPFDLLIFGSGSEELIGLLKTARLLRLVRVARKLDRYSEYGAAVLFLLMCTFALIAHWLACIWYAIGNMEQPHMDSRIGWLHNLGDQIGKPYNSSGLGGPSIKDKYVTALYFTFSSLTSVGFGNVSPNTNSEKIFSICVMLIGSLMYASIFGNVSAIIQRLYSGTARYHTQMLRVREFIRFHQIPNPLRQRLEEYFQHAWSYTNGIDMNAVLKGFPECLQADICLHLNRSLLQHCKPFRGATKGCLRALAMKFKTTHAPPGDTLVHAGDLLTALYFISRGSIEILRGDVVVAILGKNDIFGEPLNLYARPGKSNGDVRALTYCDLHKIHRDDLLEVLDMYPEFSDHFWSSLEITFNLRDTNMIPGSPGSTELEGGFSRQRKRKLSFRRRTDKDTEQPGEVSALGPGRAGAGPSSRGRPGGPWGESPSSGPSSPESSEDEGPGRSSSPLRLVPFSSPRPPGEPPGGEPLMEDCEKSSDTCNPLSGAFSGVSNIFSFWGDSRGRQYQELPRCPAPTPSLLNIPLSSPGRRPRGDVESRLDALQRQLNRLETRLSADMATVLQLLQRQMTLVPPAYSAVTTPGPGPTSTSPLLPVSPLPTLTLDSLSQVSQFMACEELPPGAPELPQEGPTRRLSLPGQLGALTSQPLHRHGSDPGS
# Experimental: Test Example 6: hERG Potassium Channel Effect Test
# The hERG inhibition test was performed on some of the example compounds of the present disclosure using the manual electrophysiological patch clamp method. The cell line was derived from HEK293 cells that overexpressed hERG potassium ion channels. The specific experimental protocol was developed by PharmaCore Labs with reference to literature published in peer-reviewed journals and was performed by PharmaCore Labs in accordance with its standard experimental operating procedures. The highest test concentration was 30 μM.
# [8] = biological target: Menin/MLL-4-43 peptide interaction (Homo sapiens (Human), UniProt O00255); test: Menin-MLL interaction inhibitory activity assay (fluorescence polarization competition); type: binding; details: FITC-MLL4-43-peptide, Menin recombinant protein
# Sequence of Menin/MLL-4-43 peptide interaction (O00255 whole entry, species assumed): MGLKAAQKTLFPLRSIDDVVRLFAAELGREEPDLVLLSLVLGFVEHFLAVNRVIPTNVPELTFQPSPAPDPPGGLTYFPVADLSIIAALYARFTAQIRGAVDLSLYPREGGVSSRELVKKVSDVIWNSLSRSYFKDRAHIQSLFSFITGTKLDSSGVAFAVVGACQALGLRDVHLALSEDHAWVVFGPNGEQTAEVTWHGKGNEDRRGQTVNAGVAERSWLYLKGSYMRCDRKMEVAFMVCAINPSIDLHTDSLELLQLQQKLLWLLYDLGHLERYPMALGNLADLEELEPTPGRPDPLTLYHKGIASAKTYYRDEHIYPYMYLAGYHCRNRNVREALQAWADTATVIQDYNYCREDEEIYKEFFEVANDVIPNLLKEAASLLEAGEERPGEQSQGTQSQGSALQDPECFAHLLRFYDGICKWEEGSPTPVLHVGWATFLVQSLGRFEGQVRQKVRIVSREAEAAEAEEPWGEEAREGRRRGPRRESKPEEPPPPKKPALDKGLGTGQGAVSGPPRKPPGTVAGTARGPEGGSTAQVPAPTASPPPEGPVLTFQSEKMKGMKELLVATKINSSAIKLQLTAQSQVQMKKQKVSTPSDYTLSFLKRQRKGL
# In short: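 Menin (8 nM solution) was preincubated 15 min with compound, then FITC-MLL4-43 peptide (10 nM solution) was added and shaken for 60 min at 25 °C. The buffer was 50 mM Tris pH 7.5, 50 mM NaCl, 1 mM DTT. IC50 was derived from fluorescence polarization read at 485/520 nm.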
# [9] = Pharmacokinetics test in mouse; type: in vivo, ICR mice; details: mice, p.o. 10 mg/kg
# Text: Test Example 4. In Vivo Pharmacokinetic Study
# Test purpose: To determine the pharmacokinetic properties of some of the example compounds of the present disclosure in mice, rats and dogs after single intravenous injection (i.v.) and oral gavage (i.g.) administration by LC-MS/MS method.
# Research methods: An appropriate amount of compound was weighed and prepared into a transparent clear solution of a certain concentration using 0.9% sodium chloride injection and 1.5 equivalents of 1M HCl aqueous solution based on the molar number of the compound. After SPF male ICR mice, SPF male SD rats, and male beagle dogs were fasted overnight, the test compound solution was given by intravenous injection and oral gavage at the corresponding dose. Anticoagulated whole blood of the test animals was collected at 5 min, 15 min, 30 min, 1 h, 2 h, 4 h, 8 h, and 24 h after administration, and plasma was separated. Plasma samples at each time point were detected by LC-MS/MS, and the plasma concentration of the compound was determined by the standard curve correction method. Phoenix WinNonlin 5.2 non-compartmental model was used to calculate the pharmacokinetic parameters of terminal elimination half-life (t½), blood peak concentration (Cmax), area under the concentration-time curve (AUC), clearance (CL), and bioavailability (F %), which was directly obtained from the serum concentration results. Blood drug concentration and pharmacokinetic parameters are expressed as mean±standard deviation (X±SD). The specific test protocols for each species are as follows.
# Pharmacokinetics Test in Mouse
# Test animals: SPF male ICR mice, weighing 25-30 g, 12 mice/compound, purchased from Chengdu Dossy Experimental Animal Co., Ltd.
# Test design: On the day of the test, ICR mice were randomly divided into groups according to body weight, fasted but with free water for 12-14 h one day before administration, and fed 2 h after administration.
# Preparation of test compound solution: The concentration of the test compound for oral gavage was 1 mg/mL. An appropriate amount of compound was weighed and prepared into a 1 mg/mL transparent clear solution using 0.9% sodium chloride injection and 1.5 equivalents of 1M HCl aqueous solution. The concentration of the test compound for intravenous injection was 0.2 mg/mL. The 1 mg/mL transparent clear solution was diluted to a concentration of 0.2 mg/mL using 0.9% sodium chloride injection. The volume of 1 M HCl solution added was calculated as: volume of 1 M HCl solution added […]=weighed amount of compound (mg)/molecular weight×1.5×1000. The amount added during preparation must not exceed the calculated value.
# The test substance was administered as follows: intravenous injection: 1 mg/kg of dose, 5 mL/kg of volume, 6 mice; oral gavage: 10 mg/kg of dose, 10 mL/kg of volume, 6 mice.
# Sample collection: Blood (40-50 μl) was collected in anticoagulant tubes sprayed with EDTA-K2 through the orbital venous plexus at 5 min, 15 min, 30 min, 1 h, 2 h, 4 h, 8 h, and 24 h after administration, and centrifuged at 10,000 rpm for 20 min within 1 h (the blood was saved on wet ice before and after centrifugation). The supernatant, which was plasma, was collected and frozen in a refrigerator at −20° C. or below for LC-MS/MS analysis of Full PK of male ICR mice (2 mice per group, 4 blood collection time points per mouse, crossover).
# [10] = biological target: T1, hERG potassium ion channel; details: reported value of the positive reference compound; cited from earlier work
GI50 [1] [nM],GI50 [2] [nM],GI50 [3] [nM],half-life at 1 μM [4] [h],half-life at 1 μM [5] [h],half-life at 1 μM [6] [h],IC50 [8] [nM],"Half life T1/2, mouse liver microsomes ([4]; 0.5 mg/mL microsomal protein) [h]","Half life T1/2, human liver microsomes ([5]; Human) [h]","Half life T1/2, dog liver microsomes ([6]; Dog) [h]",AUClast [9] [ng·h/mL],Cmax [9] [ng/mL],T1/2 [9] [h],"F, % ([9]; 1 mg/kg for intravenous injection) [%]",Compound,inhibition at 30 μM [7] [%],IC50 [7] [nM],IC50 [10] [nM]
13.2,33.1,28.5,> 2,1.35,> 2,,,,,,,,,CCN(C(=O)c1cc(F)ccc1Oc1nncnc1N1CC2(CCN(C[C@H]3CC[C@]4(CC3)CC(COC)(COC)C(=O)N4)CC2)C1)C(C)C [Example 19],12.8,> 30000,
88.3,354,183,> 2,> 2,> 2,12.9,,,,,,,,CCN(C(=O)c1cc(F)ccc1Oc1nncnc1N1CC2(CCN(C[C@H]3CC[C@]4(CC3)C[C@H](COC)C(=O)N4)CC2)C1)C(C)C [Example 37-1],13.2,> 30000,
,,,,,,,1.178,0.1998,1.05,2483,1296,1.53,88,"CCN(C(=O)c1cc(F)ccc1Oc1cncnc1N1CC2(CCN(C[C@H]3CC[C@H](NS(=O)(=O)CC)CC3)CC2)C1)C(C)C [SNDX-5613, reference compound]",,,5000 to 15000
